PMC5488875 (Anticancer research, 2017)

Columns and labels:
[1] = tested on: MDA-MB-231 cells; experiment: ROS assay; type: cell-based
[2] = tested on: HeLa cervical cancer cell line; experiment: ROS assay; type: cell-based; settings: 100 μM (highest concentration)
[3] = tested on: HT-29 colon cancer cell line; experiment: ROS assay; type: cell-based; settings: HT-29, 100 μM (highest concentration)
[4] = tested on: MDA-MB-231 cells

**Q.** Which results are given for `COC[C@H]1OC(=O)c2coc3c2[C@@]1(C)C1=C(C3=O)[C@@H]2CCC(=O)[C@@]2(C)C[C@H]1OC(C)=O` [wortmannin]?
**A.** ROS inducing effect ([1]; MDA-MB-231 breast cancer cells): potent ROS inducing agent; difference in concentration to exhibit the same ROS effect in the other two cancer cell lines ([1]; MDA-MB-231 vs HeLa and HT-29): 1000 x; ROS inducing effect [2]: Strong ROS inducing effect; ROS inducing effect [3]: Strong ROS inducing effect

**Q.** For acetylwortmannolone [Compound 1], which EC50 [4] is on record?
**A.** 8.93 µM

**Q.** And the “ROS (reactive oxygen species fold increase)” value ([1]; MDA-MB-231 cells, concentration not given)?
**A.** 1.58 fold increase
